According to patent publication US20240400980A1, “PORCINE PLURIPOTENT STEM CELL CULTURE MEDIUM AND USE THEREOF” (CHINA AGRICULTURAL UNIVERSITY, priority 2021, published 2024):
“Also recorded” adds a separate entry of the source.

How the values were obtained:
Type in all cases: cell-based, porcine
pgEpiSCs [1] = assay: Clone morphology and alkaline phosphatase (AP) staining of pgEpiSCs in modified 3i/LAF medium; details: for clone morphology / AP staining after removal of the component: component removed from 3i/LAF medium
Source text: The alkaline phosphatase staining for pgEpiSCs was based on the Alkaline Phosphatase Detection Kit (Millipore, SCR004).
The specific experimental steps followed the instructions for the kit.
(§1) Based on the prepared 3i/LAF medium and its culture method in2 above, the requirement of various factors for long-term maintenance in vitro of pgEpiSCs was test by the inventors under the same conditions as in 2 above, except for removing small molecule inhibitors and cytokines from the medium one by one.
(§2) In addition, based on the prepared 3i/LAF medium and its culture method in 2 above, the following tests were also performed by the inventors under the same conditions as in 2 above.
According to the 3i/LAF medium and its culture method prepared in 2 above, the inventors also investigated the effect of the adjusted or replaced medium on the long-term in vitro maintenance of pgEpiSCs on the basis of adjusting the concentrations of the small molecule inhibitors and cytokines or replacing the compositions of the small molecule inhibitors and cytokines in the culture medium one by one without altering the other conditions.
Experimental method: pgEpiSCs were cultured with the adjusted medium, after which AP staining was performed on the cultured pgEpiSCs of P1 (indicating the pgEpiSCs after 1 passage in the adjusted medium) or P3 (indicating the pgEpiSCs after 3 passages in the adjusted medium). The specific steps of AP staining are described in the section of Experimental Methods described previously.
Principle of the experiment: undifferentiated stem cells will express Ap at high level. By staining fixed stem cells, differentiated cells show no color and undifferentiated cells show purple or red color.

pgEpiSCs [2] = assay: RT-qPCR of marker genes in pgEpiSCs in modified 3i/LAF medium; details: for marker gene mRNA expression after removal of the component: component removed from 3i/LAF medium, qRT-PCR
Description: Total RNA of pgEpiSCs was extracted using a RNAprep Pure Cell/Bacteria Kit (TIANGEN, DP430), and then reverse transcribed into cDNA using 5× all-in-one RT premix (Abm, G490). PCR was performed using 2× RealStar Green Power Mixture (GenStar, A311-05) on the LightCycler 480 II real-time system (Roche). Comparative CT (2^−ΔΔCT) method was used to analyze the data. ACT was calculated using EF1A as an internal control. Three biological replicates were performed for all experiments. Primers for quantitative real-time PCR were listed in the key resource table.
as §1, §2

pgEpiSCs [3] = assay: Immunofluorescence of POU5F1 and EOMES in pgEpiSCs in modified 3i/LAF medium; details: component removed from 3i/LAF medium
Description: Cells were washed with DPBS (Gibco, C14190500BT) and fixed with 4% paraformaldehyde at room temperature for 30 minutes, then washed again with DPBS, permeabilized in 0.1% Triton X-100 for 20 minutes, and blocked with 3% BSA for 1 hour. Cells were incubated with the primary antibody diluted with 3% BSA overnight at 4° C. Cells were then washed 3 times with the washing buffer (DPBS containing 0.1% Triton X-100 and 0.1% Tween 20) for 3 minutes each time. Cells were incubated with diluted secondary antibody and washing buffer together at room temperature for 1 hour, then washed 3 times with the washing buffer for 5 minutes, followed by nuclear staining with DAPI (Roche Life Science, 10236276001) for 3 minutes.
as §1

pgEpiSCs [4] = assay: Proliferation and passage of pgEpiSCs with FGF2 removed or varied; details: for proliferation and passage of pgEpiSCs: FGF2 removed, with addition of PD0325901
Description: Porcine EpiSCs were cultured in 12-well plates. Cell samples were seeded in triplicate at a density of 2×10^4 cells per well. Cells were counted every 12 hours. Cells were digested and counted using the Luna™ automated cell counter at each time point. The results of the three counts were averaged and plotted. The cell doubling time was calculated as follows: Doubling Time (DT)=24×[lg2/(lgNt−IgN0)], where 24 was the cell culture time (hours); Nt was the number of cells cultured for 48 hours; and No was the number of cells recorded at 24 hours.
as §1

phosphorylated STAT3 = assay: Western blot of phosphorylated STAT3 in pgEpiSCs; details: with or without LIF; Western blotting
Description: Total proteins in cells were extracted using cell lysis buffer (Beyotime Biotechnology, P0013), and nuclear and cytoplasmic proteins were extracted using a cell nucleus and cytoplasmic protein extraction kit (Beyotime Biotechnology, P0027) supplemented with protease and phosphatase inhibitors (P1050). The concentration of extracted proteins was measured using a Bradford protein detection kit (Bio-red, 5000201). An equal amount of proteins (15 μg) were separated by SDS-PAGE gel electrophoresis, and then transferred from the gel to the Immobilon-P transfer membrane (Merck Millipore; pore size: 0.45 μm; IPVH00010). The blots were blocked in 5% skim milk powder (Sangon Biotech, A600669-0250) in TBST (20 mM Tris, pH 7.5; 150 mM NaCl; 0.1% Tween 20) at room temperature for 1 hour, and then incubated with the antibody diluted in 5% skim milk powder in TBST at 4° C. overnight. The next day, the blots were rinsed 3 times with TBST for 5 minutes each time, and then incubated with HRP conjugated secondary antibody diluted in 5% skim milk powder in TBST at room temperature for 1 hour, and finally rinsed 3 times with TBST for 5 minutes each time. The blots were developed using SuperSignal® West Dura Extended Duration Substrate (Thermo Fisher Scientific, 34075), followed by analysis of the band strength of the target protein using the CLINX chemiluminescence software. […]

[5] = IWR-1-endo replaced in 3i/LAF medium

Oc1nc(-c2ccc(C(F)(F)F)cc2)nc2c1CSCC2 [XAV939]
maintenance of pluripotency after replacing IWR-1-endo (pgEpiSCs [1]; [5]): unable to maintain pluripotency for a long time | passages until AP positivity was lost (pgEpiSCs [1]; [5]): around 8 passages | expression of core pluripotency factor OCT4 (POU5F1) (pgEpiSCs [2]; [5]): downregulated | expression of pluripotency factors REX1, STELLA, and ESRRB (pgEpiSCs [2]; [5]): downregulated

COc1ccc(N(C(=O)Oc2c(C)cccc2C)c2ccnc(Nc3ccc(N4CCN(C)CC4)cc3)n2)c(OC)c1 [WH-4-023]
POU5F1 and EOMES immunostaining after removal of the component (pgEpiSCs [3]): reduced or heterogeneous accumulation of the pluripotency factor POU5F1, while promoting the expression of the mesoderm and endoderm progenitor cell marker EOMES | marker gene mRNA expression after removal of the component (pgEpiSCs [2]): upregulation of the gastrulation formation marker genes BMP2, BMP4, EOMES and T

FGF2: fibroblast growth factor; recombinant human FGF-basic, Peprotech 100-18B
proliferation and passage of pgEpiSCs (pgEpiSCs [4]): could not proliferate or passage normally | proliferation of pgEpiSCs at high concentration (pgEpiSCs [4]; high concentration of FGF2): cells proliferated faster at the high concentration | proliferation ability of pgEpiSCs at reduced concentration (pgEpiSCs [4]; reduced concentration of FGF2, otherwise unchanged conditions): significantly reduced the proliferation ability of pgEpiSCs

NC(=O)c1ccc(-c2nc(-c3ccc4c(c3)OCO4)c(-c3ccccn3)[nH]2)cc1 [SB431542]
clone morphology after addition of the inhibitor (pgEpiSCs [1]; inhibitor added to the medium): irregular clone morphology | BMP4 and BMP downstream transcription factors ID2, ID3 after addition of the inhibitor (pgEpiSCs [2]; inhibitor added to the medium): significant increase in BMP4 and BMP downstream transcription factors (such as ID2 and ID3) | NANOG levels after addition of the inhibitor (pgEpiSCs [2]; inhibitor added to the medium): significant decline in NANOG levels | pluripotency markers POU5F1 and REX1 after addition of the inhibitor (pgEpiSCs [2]; inhibitor added to the medium): significant decrease in pluripotency markers (such as POU5F1 and REX1)

O=C(Nc1cccc2cccnc12)c1ccc(N2C(=O)[C@@H]3[C@H](C2=O)[C@@H]2C=C[C@H]3C2)cc1 [IWR-1-endo]
clone morphology / AP staining after removal of the component (pgEpiSCs [1]): unclear boundaries of pgEpiSC clones | POU5F1 and EOMES immunostaining after removal of the component (pgEpiSCs [3]): reduced or heterogeneous accumulation of the pluripotency factor POU5F1, while promoting the expression of the mesoderm and endoderm progenitor cell marker EOMES | marker gene mRNA expression after removal of the component (pgEpiSCs [2]): significant downregulation of core pluripotency factors such as NANOG, POU5F1, SOX2 and REX1; also recorded: upregulation of the gastrulation formation marker genes BMP2, BMP4, EOMES and T

O=C(NOC[C@H](O)CO)c1ccc(F)c(F)c1Nc1ccc(I)cc1F [PD0325901]
proliferation and passage of pgEpiSCs (pgEpiSCs [4]): could not proliferate or passage normally

Cc1c[nH]c(-c2cnc(NCCNc3ccc(C#N)cn3)nc2-c2ccc(Cl)cc2Cl)n1 [CHIR99021]
marker gene mRNA expression after removal of the component (pgEpiSCs [2]): downregulated the expression of cell proliferation related genes such as LIN28A, C-MYC, ETV4 and ETV5 | expression of POU5F1 and GATA6 at high concentration (pgEpiSCs [2]; high concentration of CHIR99021 in 3i/LAF medium): downregulation of the pluripotency marker POU5F1 and significant upregulation of the endodermal marker GATA6; also recorded: the expression of the pluripotency gene POU5F1 was reduced, and the expression of the lineage differentiation gene GATA6 was upregulated, presenting a heterogeneous expression pattern | expression levels of TBX3 and ESRRB (pgEpiSCs [2]; increasing concentration of CHIR99021 in 3i/LAF medium): increased with increasing concentration

LIF: cytokine of 3i/LAF; recombinant human LIF, PeproTech 300-05
detection of phosphorylated STAT3 (phosphorylated STAT3): phosphorylated STAT3 could only be detected in the presence of LIF | clone morphology / AP staining after removal of the component (pgEpiSCs [1]): not a necessary condition for maintaining the morphology of pgEpiSC clones

B1: Activin A: a member of the TGF-β superfamily; recombinant human Activin A, Peprotech 120-14E (protein, UniProt P08476 311-426, looked up)
Inhibin beta A chain: GLECDGKVNICCKKQFFVSFKDIGWNDWIIAPSGYHANYCEGECPSHIAGTSGSSLSFHSTVINHYRMRGHSPFANLKSCCVPTKLRPMSMLYYDDGQNIIKKDIQNMIVEECGCS
modifications: Inhibin beta A chain recombinant homodimer
marker gene mRNA expression after removal of the component (pgEpiSCs [2]): reduced levels of the pluripotency marker NANOG
